Test results: patent US11725015B2, “Macrocyclic compound and uses thereof” (President and Fellows of Harvard College, priority 2017, dated 2023)

What was measured:
[1] = test system: microtubule dynamics in U2OS-EB3-AG osteosarcoma cell line; experiment: Cell-based microtubule dynamics assay
Procedure: A cell-based microtubule (MT) dynamics assay was conducted with the U2OS-EB3-AG osteosarcoma cell line, in which the fusion protein of EB3 (a microtubule plus end binding protein) and Azami-Green (EB3-AG) was stably expressed. U2OS-EB3-AG cells were culture in RPMI-1640 medium containing 10% FBS, and penicillin-streptomycin, at 37° C. in a humidified 5% CO2 atmosphere. The MT dynamics in the live cells can be visualized as the movement of the comet-like structure of EB3-AG. U2OS-EB3-AG cells plated on glass-base culture plates (EZVIEW plate, AGC Techno Glass, Japan) were treated with Compound (1) at the indicated concentration and the microtubule dynamics were monitored by time-lapse imaging using fluorescent microscope with 60-fold magnification oil-immersed objective lens (BZ-X710, KEYENCE, Japan). Higher magnification views of the boxed areas were shown in inlets. When treated with Compound (1) at 0.5 nM (IC50 value for antiproliferative activity in U2OS-EB3-AG cells), the comet-like structures became hard to observe at around 60 minutes after the addition of the compound.

[2] = test system: FaDu-Luc subcutaneous xenograft; experiment: FaDu s.c. xenograft model in combination with radiation; type: in vivo, mice
Procedure: Luciferase-transduced FaDu-Luc cells were established by retrovirus-mediated gene transfer. […]. Then, helper-free recombinant retroviruses were produced by transfecting the above retroviral expression vector together with pGP and pE-Ampho plasmids (Takara Bio; Shiga, Japan), into 293T cells (ATCC; Manassas, USA). Next, FaDu cells were infected with the recombinant retroviruses, and were cultured for two weeks in the presence of puromycin (2 μg/mL). The infected cells were selected from a polyclonal proliferative population of the culture.
A luciferase-transduced human SCCHN cell line FaDu-Luc, which had been cultured in an RPMI-1640 medium containing 10% FBS, and penicillin and streptomycin, was adjusted to a concentration of 5×10^7 cells/mL with Hank's Balanced Salt Solution to prepare a cell suspension. The cell suspension was inoculated in a volume of 100 μL into a subcutaneous part of a right thigh of nude mice, 6 weeks of ages (CAnN.Cg-Foxnlnu/CrlCrlj, female, Charles River Laboratories Japan, Inc.). Thirteen days after the cell inoculation, the tumor volume was analyzed using bioluminescence signal from FaDu-Luc cells. […] The bioluminescence signal was monitored using the IVIS […] series (PerkinElmer, Waltham, Mass.), consisting of a highly sensitive, cooled chargecoupled device camera. […] Data were analyzed using total photon flux emission (photons/second) in the ROIs. […]

[3] = test system: MES-SA/Dx5-Rx1 (human uterine sarcoma, overexpress P-gp); experiment: In vitro antiproliferative activity, MES-SA/Dx5-Rx1; type: cell-based; conditions: MES-SA/Dx5-Rx1, 72 hours
Procedure: The in vitro antiproliferative assays for Compound (1) were conducted using a small panel of cancer cell lines including human squamous cell carcinoma of the esophagus (OE21, TE-8), human adenocarcinoma of the esophagus (OE33), and human uterine sarcoma (MES-SA, MES-SA-Dx5-Rx1). All cell lines were cultured in RPMI-1640 medium containing 10% FBS, and penicillin-streptomycin (culture medium), in a 5% CO2 incubator (37° C.). To each well of a 96 well plate (Becton, Dickinson and Company, 353219), 75 μL of cell suspension adjusted to a concentration of 4×10^4 cells/mL with the culture medium was added, and the cells were incubated overnight in a 5% CO2 incubator (37° C.). On the next day, 25 μL of Compound (1) in three-fold dilution series suspended in the culture medium was added to each well, and the resultant was incubated for 72 hours in a 5% CO2 incubator (37° C.). Then, cell viability was determined by CellTiter-Glo® Luminescent Cell Viability Assay (Promega) with 2013 EnVision™ Multilabel Reader (Perkin-Elmer, Wellesley, Mass.). Value of the wells containing cells without adding the test compounds was defined as 100% and the value of the wells containing no cells was defined as 0%. […] The P-gp susceptibility was calculated as the ratio of the IC50 value in MES-SA-Dx5-Rx1 cells, which overexpress P-gp, to the IC50 value in MES-SA cells.

C=C1C[C@@H]2CC[C@@]34C[C@H]5O[C@H]6[C@@H](O3)[C@H]3O[C@H](CC[C@@H]3O[C@H]6C5O4)CC(=O)O[C@@H]3[C@@H](C)[C@@H]4O[C@@H]5C[C@]6(C[C@@H]7O[C@]8(C[C@H](C)[C@@H]9O[C@H](CN)[C@H](O)C[C@@H]9O8)C[C@H](C)[C@@H]7O6)O[C@@H]5C[C@@H]4O[C@H]3C[C@H]3O[C@@H](CC[C@@H]1O2)C[C@@H](C)C3=C [Compound (1)]
effect on microtubule (MT) dynamics [1]: had the ability to suppress the MT dynamics
time at which comet-like structures of EB3-AG became hard to observe ([1]; 0.5 nM, after the addition of the compound): around 60 minutes
Tumor Regression (%) ([2]; 0.09 mg/kg on day 1 and 8 + radiation 18 Gy on day 4 and day 11): 97%
Tumor Regression (%) ([2]; 0.09 mg/kg on day 1 and 8, without radiation): 0%
antiproliferative activity [3]: potent antiproliferative agent
